Test results reported in patent US20230095836A1, “SUBSTITUTED 5,6-DIPHENYL-3(2H)-PYRIDAZINONES FOR USE AS FUNGICIDES” (FMC Corporation, priority 2020, published 2023).

Key:
Assay type in all cases: in vivo
Zymoseptoria tritici = assay: Test A: test solution sprayed on wheat seedlings, inoculated next day with Zymoseptoria tritici (wheat leaf blotch); disease rating (100 = 100% disease control, 0 = no control; dash = not tested)
Procedure, shortened: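 Wheat seedlings sprayed to run-off with test solution, inoculated next day with Z. tritici spores, held 48 h at 24° C in saturated atmosphere, then 17 days at 20° C before rating. Scores are % disease control relative to controls (100 = full control, 0 = none).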

[1] = tested on: Puccinia recondita f. sp. tritici; assay: Test B: test solution sprayed on wheat seedlings, inoculated next day with Puccinia recondita f. sp. tritici (wheat leaf rust); disease rating (100 = 100% disease control, 0 = no control; dash = not tested)
From the text: The resulting test suspensions were then used in Tests A-F. The test solution was sprayed to the point of run-off on wheat seedlings. […] A rating of 100 indicates 100% disease control and a rating of 0 indicates no disease control (relative to the controls). A dash (—) indicates the compound was not tested.

[2] = tested on: Blumeria graminis f. sp. tritici; assay: Test C: test suspension sprayed on wheat seedlings, inoculated next day with Blumeria graminis f. sp. tritici (wheat powdery mildew); visual disease rating (100 = 100% disease control, 0 = no control; dash = not tested)
Procedure, shortened: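 Wheat seedlings were sprayed to run-off with test suspension, then dusted next day with Blumeria graminis f. sp. tritici spores. After 8 days at 20 °C in a growth chamber, disease was rated visually as percent control relative to untreated controls.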

Phakopsora pachyrhizi = assay: Test D: test solution sprayed on soybean seedlings, inoculated next day with Phakopsora pachyrhizi (Asian soybean rust); visual disease rating (100 = 100% disease control, 0 = no control; dash = not tested)
Procedure, shortened: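 Compounds predissolved in acetone (3% of final volume), suspended at ppm concentrations in 50/50 acetone/water with 250 ppm PEG400, sprayed to run-off on soybean seedlings. Inoculated next day with spores, 24 h saturated atmosphere at 22 °C, then 8 days growth chamber at 22 °C; visual rating, 100 = full control.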

Botrytis cinerea = assay: Test E: test suspension sprayed on tomato seedlings, inoculated next day with Botrytis cinerea (tomato Botrytis); visual disease rating (100 = 100% disease control, 0 = no control; dash = not tested)
Procedure, shortened: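 Tomato seedlings were sprayed to run-off and inoculated next day with Botrytis cinerea spores. They were held 48 h at 20° C in saturated humidity, then 3 days at 24° C. Disease control was rated visually against controls (100 = full, 0 = none).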

Alternaria solani = assay: Test F: test suspension sprayed on tomato seedlings, inoculated next day with Alternaria solani (tomato early blight); visual disease rating (100 = 100% disease control, 0 = no control; dash = not tested)
Procedure, shortened: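 Tomato seedlings sprayed to run-off with test suspension, inoculated next day with A. solani spores, held saturated at 27° C. for 48 h, then 20° C. for 3 days. Disease visually rated as % control relative to untreated controls.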

SMILES | Test A disease control rating (Zymoseptoria tritici; 50 ppm) [%] | Test B disease control rating ([1]; 50 ppm) [%] | Test C disease control rating ([2]; 50 ppm) [%] | Test D disease control rating (Phakopsora pachyrhizi; 50 ppm) [%] | Test E disease control rating (Botrytis cinerea; 50 ppm) [%] | Test F disease control rating (Alternaria solani; 50 ppm) [%] | other results
CCc1c(-c2ccc(F)cc2Cl)c(-c2cc(OC)ccc2Cl)nn(C)c1=O [Compound 134, 5-(2-chloro-4-fluorophenyl)-6-(2-chloro-5-methoxyphenyl)-4-ethyl-2-methyl-3(2H)-pyridazinone] |  |  |  |  |  |  | pest or weed control at 50 ppm (Zymoseptoria tritici; 50 ppm): 100%; pest or weed control at 50 ppm ([1]; 50 ppm): 100%; pest or weed control at 50 ppm ([2]; 50 ppm): 100%; pest or weed control at 50 ppm (Phakopsora pachyrhizi; 50 ppm): 96%; pest or weed control at 50 ppm (Botrytis cinerea; 50 ppm): 98%; pest or weed control at 50 ppm (Alternaria solani; 50 ppm): 100%
COc1ccc(C)c(-c2nn(C)c(=O)c(C)c2-c2ccc(F)cc2Cl)c1 [Compound 135] | 100 | 100 | 100 | 100 | 97 | 100 | 
Cc1ccc(Cl)c(-c2nn(C)c(=O)c(C)c2-c2ccc(F)cc2Cl)c1 [Compound 136, 5-(2-chloro-4-fluorophenyl)-6-(2-chloro-5-methylphenyl)-2,4-dimethyl-3(2H)-pyridazinone] |  |  |  |  |  |  | pest or weed control at 50 ppm (Zymoseptoria tritici; 50 ppm): 99%; pest or weed control at 50 ppm ([1]; 50 ppm): 100%; pest or weed control at 50 ppm ([2]; 50 ppm): 100%; pest or weed control at 50 ppm (Phakopsora pachyrhizi; 50 ppm): 97%; pest or weed control at 50 ppm (Botrytis cinerea; 50 ppm): 95%; pest or weed control at 50 ppm (Alternaria solani; 50 ppm): 40%
COc1cc(F)c(F)c(-c2nn(C)c(=O)c(C)c2-c2ccc(F)cc2Cl)c1 [Compound 137] | 100 | 100 | 100 | 100 | 66 | 100 | 
COc1ccc(F)c(-c2nn(C)c(=O)c(C)c2-c2ccc(F)cc2Cl)c1 [Compound 138] | 100 | 100 | 100 | 100 | 93 | 100 | 
COc1ccc(Cl)c(-c2nn(C)c(=O)c(C3CC3)c2-c2ccc(F)cc2Cl)c1 [Compound 139] | 100 | 86 | 91 | 0 | 93 | 9 | 
COc1cccc(-c2nn(C)c(=O)c(Cl)c2-c2ccc(F)cc2Cl)c1Cl [Compound 140] | 99 | 100 | 99 | 100 | 99 | 100 | 
Cn1nc(-c2ccccc2)c(-c2ccc(F)cc2Cl)c(Cl)c1=O [Compound 141, 4-chloro-5-(2-chloro-4-fluorophenyl)-2-methyl-6-phenyl-3(2H)-pyridazinone] |  |  |  |  |  |  | pest or weed control at 50 ppm (Zymoseptoria tritici; 50 ppm): 99%; pest or weed control at 50 ppm ([1]; 50 ppm): 98%; pest or weed control at 50 ppm ([2]; 50 ppm): 99%; pest or weed control at 50 ppm (Phakopsora pachyrhizi; 50 ppm): 0%; pest or weed control at 50 ppm (Botrytis cinerea; 50 ppm): 98%; pest or weed control at 50 ppm (Alternaria solani; 50 ppm): 99%
COc1c(-c2ccc(F)cc2Cl)c(-c2ccccc2)nn(C)c1=O [Compound 142, 5-(2-chloro-4-fluorophenyl)-4-methoxy-2-methyl-6-phenyl-3(2H)-pyridazinone] |  |  |  |  |  |  | pest or weed control at 50 ppm (Zymoseptoria tritici; 50 ppm): 95%; pest or weed control at 50 ppm ([1]; 50 ppm): 68%; pest or weed control at 50 ppm ([2]; 50 ppm): 99%; pest or weed control at 50 ppm (Phakopsora pachyrhizi; 50 ppm): 0%; pest or weed control at 50 ppm (Botrytis cinerea; 50 ppm): 98%; pest or weed control at 50 ppm (Alternaria solani; 50 ppm): 98%
CCOC(=O)c1c(-c2ccc(F)cc2Cl)c(-c2ccc(F)cc2Cl)nn(C)c1=O [Compound 143] |  |  |  |  |  |  | Test A disease control rating (Zymoseptoria tritici; 250 ppm): 6%; Test B disease control rating ([1]; 250 ppm): 80%; Test C disease control rating ([2]; 250 ppm): 100%; Test D disease control rating (Phakopsora pachyrhizi; 250 ppm): 0%; Test E disease control rating (Botrytis cinerea; 250 ppm): 0%; Test F disease control rating (Alternaria solani; 250 ppm): 0%
Cn1nc(-c2ccc(F)cc2Cl)c(-c2ccc(F)cc2Cl)c(C(=O)O)c1=O [Compound 144] |  |  |  |  |  |  | Test A disease control rating (Zymoseptoria tritici; 250 ppm): 0%; Test B disease control rating ([1]; 250 ppm): 0%; Test C disease control rating ([2]; 250 ppm): 0%; Test D disease control rating (Phakopsora pachyrhizi; 250 ppm): 74%; Test E disease control rating (Botrytis cinerea; 250 ppm): 0%; Test F disease control rating (Alternaria solani; 250 ppm): 0%
Cn1nc(-c2cccc(F)c2Cl)c(-c2ccc(F)cc2Cl)c(Cl)c1=O [Compound 145] | 100 | 100 | 100 | 99 | 100 | 100 | 
COc1cccc(-c2nn(C)c(=O)c(OC)c2-c2ccc(F)cc2Cl)c1Cl [Compound 146] | 100 | 100 | 100 | 96 | 98 | 99 | 
CCOC(=O)c1c(-c2ccc(F)cc2Cl)c(-c2ccc(F)cc2Cl)nn(C)c1=O [Compound 153] |  |  |  |  |  |  | Test A disease control rating (Zymoseptoria tritici; 250 ppm): 0%; Test B disease control rating ([1]; 250 ppm): 0%; Test C disease control rating ([2]; 250 ppm): 96%; Test D disease control rating (Phakopsora pachyrhizi; 250 ppm): 71%; Test E disease control rating (Botrytis cinerea; 250 ppm): 0%; Test F disease control rating (Alternaria solani; 250 ppm): 0%
COc1c(-c2ccc(F)cc2Cl)c(-c2cccc(F)c2Cl)nn(C)c1=O [Compound 154] | 100 | 100 | 100 | 87 | 100 | 100 | 
COc1cc(OC)c(F)c(-c2nn(C)c(=O)c(Cl)c2-c2ccc(F)cc2Cl)c1 [Compound 155] | 99 | 100 | 100 | 100 | 100 | 100 | 
Cn1nc(-c2ccc(F)cc2Br)c(-c2ccc(F)cc2Cl)c(Cl)c1=O [Compound 156] | 99 | 100 | 99 | 96 | 100 | 87 | 
COc1cc(F)c(Cl)c(-c2nn(C)c(=O)c(Cl)c2-c2ccc(F)cc2Cl)c1 [Compound 157] | 98 | 100 | 100 | 100 | 99 | 100 | 
COc1cc(F)cc(-c2nn(C)c(=O)c(Cl)c2-c2ccc(F)cc2Cl)c1Br [Compound 158] | 100 | 100 | 100 | 100 | 99 | 99 | 
COc1cc(F)c(Br)c(-c2nn(C)c(=O)c(Cl)c2-c2ccc(F)cc2Cl)c1 [Compound 159] | 100 | 100 | 99 | 100 | 99 | 100 | 
COc1c(-c2ccc(F)cc2Cl)c(-c2ccccc2Cl)nn(C)c1=O [Compound 160] | 100 | 100 | 100 | 73 | 99 | 0 | 
Cc1c(-c2ccc(F)cc2Cl)c(-c2cc(O)ccc2Cl)nn(C)c1=O [Compound 161] | 98 | 99 | 100 | 99 | 96 | 47 | 
COc1c(-c2ccc(F)cc2Cl)c(-c2ccc(F)cc2Br)nn(C)c1=O [Compound 162] | 100 | 89 | 98 | 13 | 99 | 16 | 
COc1ccc(-c2nn(C)c(=O)c(Cl)c2-c2ccc(F)cc2Cl)c(F)c1 [Compound 163] | 100 | 100 | 78 | 77 | 100 | 99 | 
COc1cc(F)c(Cl)c(-c2nn(C)c(=O)c(OC)c2-c2ccc(F)cc2Cl)c1 [Compound 164] | 100 | 100 | 99 | 100 | 99 | 100 | 
COc1cc(F)c(Br)c(-c2nn(C)c(=O)c(OC)c2-c2ccc(F)cc2Cl)c1 [Compound 165] | 100 | 100 | 99 | 92 | 95 | 100 | 
